Laboratory results taken from US9458104B2 (priority 2012, dated 2016).

Columns and labels:
[1] = molecular target: T1, RORγ ligand binding domain (LBD) (Homo sapiens, UniProt P51449); test: TR-FRET Activity Assay (ligand sensing assay, RORγ-LBD / coactivator peptide interaction); assay type: biochemical
T1 construct: made in house; host or cells: E. coli BL-21 (BL3), vector pDEST15
T1 sequence (P51449 269-508 limits assumed): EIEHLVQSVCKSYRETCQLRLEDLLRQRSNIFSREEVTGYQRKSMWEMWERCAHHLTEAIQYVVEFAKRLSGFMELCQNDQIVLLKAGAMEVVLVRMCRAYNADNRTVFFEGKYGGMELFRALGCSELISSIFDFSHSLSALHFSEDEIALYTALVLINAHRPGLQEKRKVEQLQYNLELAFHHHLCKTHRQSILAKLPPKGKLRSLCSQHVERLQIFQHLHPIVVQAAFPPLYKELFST
Outline: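 GST-RORγ LBD expressed in bacteria, 20–60 ng/well, with biotinylated coactivator peptide 200–600 nM, streptavidin-APC and Eu-anti-GST. Buffer: 20 mM Tris-HCl pH 6.8, 60 mM KCl, 1 mM DTT, 5 mM MgCl2, BSA; 1% DMSO. LANCE TR-FRET 665/615 nm ratio; IC50 from four-parameter logistic fit.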

RORγ = molecular target: T2, RORγ (UniProt P51449); assay type: cell-based; settings: 293T cells, 16 h; for pIC50 (FF): firefly (FF) luciferase; for pIC50 (REN): renilla normalised (RENnorm) luciferase
T2 construct: hRORg-LBD|aa259-518|NP_005051.2; hRORgt|aa1-497|NP_001001523 (RORg, t isoform, 497aa); mRORg-LBD|aa264-516|NP_035411
T2 sequence (P51449 1-518): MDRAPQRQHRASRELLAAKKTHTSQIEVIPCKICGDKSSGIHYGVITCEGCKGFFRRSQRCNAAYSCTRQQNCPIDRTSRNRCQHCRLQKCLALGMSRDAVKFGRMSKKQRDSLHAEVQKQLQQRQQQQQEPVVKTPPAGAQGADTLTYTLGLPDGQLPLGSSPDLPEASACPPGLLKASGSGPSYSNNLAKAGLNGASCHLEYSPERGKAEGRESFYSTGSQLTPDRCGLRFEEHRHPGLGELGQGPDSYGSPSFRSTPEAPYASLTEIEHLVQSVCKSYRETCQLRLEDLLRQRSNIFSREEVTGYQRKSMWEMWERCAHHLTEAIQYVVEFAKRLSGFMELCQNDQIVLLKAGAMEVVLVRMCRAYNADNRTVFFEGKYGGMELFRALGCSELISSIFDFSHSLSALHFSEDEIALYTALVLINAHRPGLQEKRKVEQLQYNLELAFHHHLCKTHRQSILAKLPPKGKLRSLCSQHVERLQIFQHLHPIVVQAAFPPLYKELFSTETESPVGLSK

## CC(C)(C)NS(=O)(=O)c1ccc(-n2nc(C(=O)N[C@H]3C[C@H](C(=O)O)C3)nc2CC2CCCCC2)cc1C(C)(C)C [Example 318, trans-3-(1-(3-(tert-Butyl)-4-(N-(tert-butyl)sulfamoyl)phenyl)-5-(cyclohexylmethyl)-1H-1,2,4-triazole-3-carboxamido)cyclobutanecarboxylic acid]
[1]
  IC50: 2 µM
RORγ
  pIC50 (FF): < 4.7
  pIC50 (REN): < 4.7

## CC(C)(C)NS(=O)(=O)c1ccc(-n2nc(C(=O)NC3CCOCC3)nc2CC2CCCCC2)cc1C(C)(C)C [Example 318/1]
[1]
  IC50: 2.51 µM
RORγ
  pIC50 (FF): 6.2
  pIC50 (REN): 6.2

## Cc1c(C(=O)NC2CCOCC2)cc(-c2ccc(S(=O)(=O)NC(C)(C)C)c(C(F)(F)F)c2)n1CC(C(F)(F)F)C(F)(F)F [Example 319, 5-(4-(N-(tert-Butyl)sulfamoyl)-3-(trifluoromethyl)phenyl)-2-methyl-N-(tetrahydro-2H-pyran-4-yl)-1-(3,3,3-trifluoro-2-(trifluoromethyl)propyl)-1H-pyrrole-3-carboxamide]
[1]
  IC50: 5.01 µM
RORγ
  pIC50 (FF): 6.0
  pIC50 (REN): 5.8

## CC(=O)c1cc(-c2cc(C(C)(C)C)cc(C(C)(C)C)c2)n(CC2CCCCC2)c1C [Example 321, 1-(1-(Cyclohexylmethyl)-5-(3,5-di-tert-butylphenyl)-2-methyl-1H-pyrrol-3-yl)ethanone]
[1]
  IC50: 0.794 µM
RORγ
  pIC50 (FF): 5.8
  pIC50 (REN): 6.0

## C=CCCC(=O)c1cc(-c2cc(C(C)(C)C)cc(C(C)(C)C)c2)n(CC2CCCCC2)c1C [Example 322, 1-(1-(Cyclohexylmethyl)-5-(3,5-di-tert-butylphenyl)-2-methyl-1H-pyrrol-3-yl)pent-4-en-1-one]
[1]
  IC50: 1.58 µM
RORγ
  pIC50 (FF): < 4.7
  pIC50 (REN): < 4.7

## Cc1c(C(=O)CC2CC2)cc(-c2cc(C(C)(C)C)cc(C(C)(C)C)c2)n1CC1CCCCC1 [Example 324, 1-(1-(Cyclohexylmethyl)-5-(3,5-di-tert-butylphenyl)-2-methyl-1H-pyrrol-3-yl)-2-cyclopropylethanone]
[1]
  IC50: 0.631 µM
RORγ
  pIC50 (FF): < 4.7
  pIC50 (REN): < 4.7

## Cc1c(S(=O)(=O)CC2CC2)cc(-c2cc(C(C)(C)C)cc(C(C)(C)C)c2)n1CC1CCCCC1 [Example 325, 1-(Cyclohexylmethyl)-3-((cyclopropylmethyl)sulfonyl)-5-(3,5-di-tert-butylphenyl)-2-methyl-1H-pyrrole]
[1]
  IC50: 0.398 µM
RORγ
  pIC50 (FF): 6.1
  pIC50 (REN): 6.1

## CCS(=O)(=O)c1cc(-c2cc(C(C)(C)C)cc(C(C)(C)C)c2)n(CC2CCCCC2)c1C [Example 325/1]
[1]
  IC50: 0.251 µM
RORγ
  pIC50 (FF): 6.0
  pIC50 (REN): 6.3
